A short description of series [1]: Thermogravimetric-differential thermal analysis (TG-DTA) of iridium complexes. The format is physicochemical. From the text: The iridium complexes used in Examples and Comparative Examples described above were subjected to a thermogravimetric-differential thermal analysis (TG-DTA) under an oxygen atmosphere and a nitrogen atmosphere respectively, to examine decomposition properties of the complexes. […] As the iridium complex, the iridium complex represented be the above formula (3) and the iridium complex represented by the above formula (5) were used for Examples and Comparative Examples respectively.

Series [2] can be described thus: Preparation of an aqueous iridium complex solution (water solubility). The conditions noted are these: aqueous solution at iridium concentration 0.01 mol/L could not be prepared. The format is physicochemical.

Results on 1 substance are retold here after patent publication US12569875B2, “Film formation method” (FLOSFIA INC., priority 2023, dated 2026).

For iridium acetylacetonato [formula (5)], the “mass loss at 400 to 600° C.” value in series [1] (TG-DTA, 400 to 600° C., FIG. 3) is “little mass loss”. In series [1] (at 400° C., temperature increase rate 20° C./min, FIG. 2 / FIG. 3), the mass loss ratio entry is “about 70%”. Moreover, the solubility in water result in series [2] is given as “insoluble in water”.
